From patent US20260223850A1, “SUBSTITUTED PYRROLIDONE COMPOUND, PREPARATION METHOD THEREFOR, COMPOSITION AND APPLICATION THEREOF” (QINGDAO KINGAGROOT CHEMICAL COMPOUND CO., LTD., priority 2023, published 2026)

How the values were obtained:
Format in all cases: in vivo
Leptochloa chinensis = assay: Seedling stage sealing experiment for water-seeding; details: 120 g a.i./ha, 15 days, fresh weight control rate
Text: (1) Seedling Stage Sealing Experiment for Water-Seeding:
The activity level criteria for plant damage (i.e., growth control rate) are as follows: • Level 9: completely dead; • Level 8: growth control rate greater than or equal to 90% and less than 100%; • Level 7: growth control rate greater than or equal to 80% and less than 90%; • Level 6: growth control rate greater than or equal to 70% and less than 80%; • Level 5: growth control rate greater than or equal to 50% and less than 70%; • Level 4: growth control rate greater than or equal to 30% and less than 50%; • Level 3: growth control rate greater than or equal to 20% and less than 30%; • Level 2: growth control rate greater than or equal to 10% and less than 20%; • Level 1: growth control rate less than 10%; • Level 0: no effect.
The above growth control rates are fresh weight control rates.
Echinochloa phyllopogon, Digitaria sanguinalis, Huaidao (rice cultivar), etc. were broadcasted on the surface of nutrition bowls filled with soil and fully covered by soil. The foregoing well-prepared nutrition bowls were then placed in a cultivation box with water filled to a suitable height to keep the soil in the nutrition bowls moist. A test compound of the present invention was individually dissolved with acetone, then diluted into solution of a certain concentration using a certain amount of water, and sprayed using a spray tower. The plants were placed on a greenhouse seedbed and cultured for 15 days, and the experimental results were then collected. The compound was applied at 120, 60, 30 and 15 g a.i./ha in triplicate, and the results were averaged.

Echinochloa phyllopogon = assay: as above; details: 120 g a.i./ha, 15 days, fresh weight control rate
Procedure, shortened: (§1)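 Scores (0 = no effect to 9 = dead) reflect fresh-weight control rate 15 days after spray application in greenhouse at 15, 30, 60 or 120 g a.i./ha, mean of three replicates. Seeds were broadcast and soil-covered in pots held moist in water-filled cultivation boxes.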

Echinochloa crusgalli = assay: as above; details: 120 g a.i./ha, 15 days, fresh weight control rate
Huaidao (rice cultivar) = assay: Seedling stage sealing experiment for water-seeding (crop safety); details: 120 g a.i./ha, 15 days, fresh weight control rate; for Huaidao (rice cultivar) plant damage level: seedling stage sealing; for Huaidao (rice cultivar) plant damage level (growth control rate): spray, seedling stage sealing for water-seeding
Procedure, shortened: as §1

[1] = spray, seedling stage sealing for water-seeding

SMILES	Leptochloa chinensis activity level (growth control rate) (Leptochloa chinensis)	Echinochloa phyllopogon activity level (growth control rate) (Echinochloa phyllopogon; seedling stage sealing)	Echinochloa crusgalli activity level (growth control rate) (Echinochloa crusgalli; seedling stage sealing)	Huaidao (rice cultivar) plant damage level (Huaidao (rice cultivar))	Echinochloa phyllopogon activity level (growth control rate) (Echinochloa phyllopogon; [1])	Echinochloa crusgalli activity level (growth control rate) (Echinochloa crusgalli; [1])	Huaidao (rice cultivar) plant damage level (growth control rate) (Huaidao (rice cultivar))
COc1cc(OC)cc([C@H]2CN(C)C(=O)[C@@H]2C(=O)Nc2cnn(C)c2C2CC2)c1 [301′]	6 (Level 6: growth control rate greater than or equal to 70% and less than 80%)						
CN1C[C@H](c2cccc(Oc3ccccc3)c2)[C@@H](C(=O)Nc2cnn(C)c2Cl)C1=O [50′]	6 (Level 6: growth control rate greater than or equal to 70% and less than 80%)						
Cc1c(NC(=O)[C@H]2C(=O)N(C)C[C@@H]2c2cccc(C(F)(F)F)c2)cnn1C [189′]		9	9	0			
Cc1cc(C)cc([C@H]2CN(C)C(=O)[C@@H]2C(=O)Nc2cnn(C)c2S(C)(=O)=O)c1 [498′]					9	9	0
CN1C[C@H](c2cccc(C(F)(F)F)c2)[C@@H](C(=O)Nc2cnn(CC3CC3)c2Cl)C1=O [165′]	6 (Level 6: growth control rate greater than or equal to 70% and less than 80%)						
C=Cc1c(NC(=O)[C@H]2C(=O)N(C)C[C@@H]2c2cccc(C(F)(F)F)c2)cnn1C(F)F [406′]		9	9	2 (Level 2: growth control rate greater than or equal to 10% and less than 20%)			
CN1C[C@H](c2cc(Cl)cc(Cl)c2)[C@@H](C(=O)Nc2cnn(C)c2Cl)C1=O [519′]					9	9	1 (Level 1: growth control rate less than 10%)
Cc1cc(C)cc([C@H]2CN(C)C(=O)[C@@H]2C(=O)Nc2cnn(CC(F)(F)F)c2Cl)c1 [268′]		6 (Level 6: growth control rate greater than or equal to 70% and less than 80%)	7 (Level 7: growth control rate greater than or equal to 80% and less than 90%)	0			
CN1C[C@H](c2cccc3c2OC(F)(F)O3)[C@@H](C(=O)Nc2cnn(C)c2Cl)C1=O [450′]					9	9	0
Cc1cccc([C@H]2CN(C)C(=O)[C@@H]2C(=O)Nc2cn(C)nc2I)c1 [399′]		9	9	0			
COC(=O)c1c(NC(=O)[C@H]2C(=O)N(C)C[C@@H]2c2cccc(C(F)(F)F)c2)cnn1C [199′]		6 (Level 6: growth control rate greater than or equal to 70% and less than 80%)	6 (Level 6: growth control rate greater than or equal to 70% and less than 80%)	0			
Cc1cc(C)cc([C@H]2CN(C)C(=O)[C@@H]2C(=O)Nc2cnn(C)c2C(F)(F)F)c1 [427′]		9	9	2 (Level 2: growth control rate greater than or equal to 10% and less than 20%)			
COCCn1ncc(NC(=O)[C@H]2C(=O)N(C)C[C@@H]2c2cccc(C)c2)c1Cl [386′]		6 (Level 6: growth control rate greater than or equal to 70% and less than 80%)	9	0			
C=C(C)c1c(NC(=O)[C@H]2C(=O)N(C)C[C@@H]2c2cccc(C(F)(F)F)c2)cnn1C [407′]		9	9	0			
COC(=O)c1c(NC(=O)[C@H]2C(=O)N(C)C[C@@H]2c2cc(C)cc(C)c2)cnn1C [433′]		6 (Level 6: growth control rate greater than or equal to 70% and less than 80%)	9	0			
Cc1cccc([C@H]2CN(C)C(=O)[C@@H]2C(=O)Nc2cnn(C(C)C)c2C2CC2)c1 [138′]		6 (Level 6: growth control rate greater than or equal to 70% and less than 80%)	7 (Level 7: growth control rate greater than or equal to 80% and less than 90%)	0			
Cc1cc([C@H]2CN(C)C(=O)[C@@H]2C(=O)Nc2cnn(C)c2C2CC2)cc(C)c1C [448′]					9	9	0
C=C(C)c1c(NC(=O)[C@H]2C(=O)N(C)C[C@@H]2c2cc(C)cc(C)c2)cnn1C [276′]		6 (Level 6: growth control rate greater than or equal to 70% and less than 80%)	9	0			
CN1C[C@H](c2cc(Cl)cc(Cl)c2)[C@@H](C(=O)Nc2cnn(C)c2Cl)C1=O [441′]		9	9	0			
CN1C[C@H](c2cc(Br)cc(C(F)F)c2)[C@@H](C(=O)Nc2cnn(C(F)F)c2Cl)C1=O [512′]					7 (Level 7: growth control rate greater than or equal to 80% and less than 90%)	9	0
CN1C[C@H](c2cc(Cl)c(Cl)c(C(F)(F)F)c2)[C@@H](C(=O)Nc2cnn(C)c2Cl)C1=O [326′]		7 (Level 7: growth control rate greater than or equal to 80% and less than 90%)	8 (Level 8: growth control rate greater than or equal to 90% and less than 100%)	0			
CC(C)n1ncc(NC(=O)[C@H]2C(=O)N(C)C[C@@H]2c2cccc(C(F)(F)F)c2)c1Cl [97′]		9	9	0			
CCCn1ncc(NC(=O)[C@H]2C(=O)N(C)C[C@@H]2c2cccc(C)c2)c1Cl [462′]					9	9	0
C=C(C)c1c(NC(=O)[C@H]2C(=O)N(C)C[C@@H]2c2cccc(C)c2)cnn1C [379′]		6 (Level 6: growth control rate greater than or equal to 70% and less than 80%)	9	0			
Cc1cc([C@H]2CN(C)C(=O)[C@@H]2C(=O)Nc2cnn(C)c2C#N)cc(C)c1C [518′]					9	9	0
Cc1cccc([C@H]2CN(C)C(=O)[C@@H]2C(=O)Nc2cnn(C)c2Br)c1 [389′]		9	9	0			
COCc1c(NC(=O)[C@H]2C(=O)N(C)C[C@@H]2c2cccc(C)c2)cnn1C [378′]		6 (Level 6: growth control rate greater than or equal to 70% and less than 80%)	9	0			
CN1C[C@H](c2cccc(C(F)(F)F)c2)[C@@H](C(=O)Nc2cnn(C)c2C(F)F)C1=O [478′]					9	9	0
